Source: patent US8747910B2, “Prediction of response to platinum-based therapy” (Atlas Antibodies AB, priority 2009, dated 2014)

Legend:
[1] = test system: A2780 and A2780-Cp70 cells; assay: WST-1 cell viability assay after cisplatin treatment; format: cell-based, human; settings: A2780-cp70 compared to parental A2780; cisplatin 0-100 μM, 48 h; FIG. 23
Method: The effect of cisplatin on cell viability was determined by the WST-1 assay (Roche Applied Science) according to the manufacturer's recommendation. A2780 and A2780-Cp70 cells were seeded in 96-well plates at the density of 2500 cells/well in 100 μl appropriate medium a day before addition of cisplatin. The cells were treated with cisplatin (0-100 μM) for 48 h. Samples were made in triplicate. Ten microliters WST-1 solution was added per well and cells were incubated at 37° C. for 4 hr. The absorbance of each well was measured using a scanning multiwell spectrophotometer, ELISA reader at the wavelength of 450 nm and reference wavelength of 690 nm.

A2780 cells = assay: Effect of RBM3 knockdown on cisplatin resistance (WST-1 viability); format: cell-based, human; settings: cisplatin sensitive cells with anti-RBM3 siRNA 50 nM vs non-exposed cells; cisplatin 1-100 μM; FIG. 24
Method: The human ovarian cancer cell line A2780 and the cisplatin-resistant variant A2780 Cp70 were maintained in RPMI-1640 supplemented with glutamine, 10% fetal bovine serum and 1% penicillin/streptomycin in a humidified incubator of 5% CO2 at 37° C. Cisplatin (Sigma) was dissolved in 0.9% NaCl to a stock solution of 1 mg/ml and added to cell cultures to the final concentration (1-100 μM).
Transfection with siRNA against RBM3 (Applied Biosystems, Carlsbad, Calif.) or control siRNA (Applied Biosystems) was performed with Lipofectamine 2000 (Invitrogen, Carlsbad, Calif.) with a final concentration of 50 nM siRNA.
The effect of cisplatin on cell viability was determined by the WST-1 assay as described in Examples, section 12.

[2] = test system: epithelial ovarian cancer; assay: Gene expression analysis of ovarian cancer, recurrence free survival; format: in vivo, human; settings: patients with tumors of high vs low RBM3 expression level; 210 serous samples; FIG. 19
Source text: Data was collected from a previously performed microarray study, based on a patient cohort of 285 patients diagnosed with epithelial ovarian cancer between 1992 and 2006. Institutional Review Board approval for patient consent had been obtained for all patients.
The median age of patients was 59 years (ranging from 18-79 years). The inventors decided to exclude data from 18 patients who received neoadjuvant therapy, as the inventors realized that this treatment could possibly influence RBM3 mRNA levels, and might thus lead to biased results. Further, data from 40 patients who didn't receive platinum based therapy were removed from the data set. Of these 227 samples, 210 came from patients with serous cancer, 16 with endometroid and 1 with adenocarcinoma. For statistical analysis only serous samples were considered. Pathology evaluation data existed for all patients, and recurrence free survival was evaluated for RBM3 high as well as RBM3 low mRNA content.

N.N.[Cl][Pt][Cl] [cisplatin]
viability after cisplatin treatment [1]: increased viability | viability after cisplatin treatment at low RBM3 protein expression (A2780 cells): increased viability | recurrence free survival [2]: significantly better recurrence free survival
